Measured values as given in patent publication US8883801B2, “Substituted pyrazolo[1,5-a]pyrimidines as mTOR inhibitors” (Merck Sharp & Dohme Corp., priority 2010, dated 2014).
Where two headings read alike, the source gives them in different places. One block for each compound: values may come before it.

Columns and labels:
[1] = test system: mTORC1 activity: phosphorylated 4E-BP1 Thr37/46 (p4E-BP1 Thr37/46) in PC3 cells; assay: mTOR target engagement assay, immunofluorescent cell-based, mTORC1 readout; conditions: rated class, 90 min treatment, read-out: P4EBP1 IC50
Protocol: The target engagement of mTOR kinase inhibitors was evaluated using an immunofluorescent cell-based assay. In this assay, inhibition of mTORC1 activity was measured by the reduction in the level of phosphorylated 4E-BP1Thr37/46 (p4E-BP1 Thr37/46), and inhibition of mTORC2 activity was measured by the reduction of phosphorylated AKTSer473 (pAKT S473).
PC3 cells (prostate tumor cell-line that contains a mutation in the tumor suppressor PTEN, that promotes the phosphorylation and activation of AKT and 4E-BP1) were used in the immunofluorescence assay. PC3 cells were seeded on 384 well plates (black clear bottom, Matrix #4332) overnight. PC3 cells were then treated with 40 μl of the serially diluted test compounds (in 5% fetal bovine serum, F12 medium containing 0.25% DMSO) for ninety minutes at 37° C. The test compound solution was removed, and the plates were washed gently two times with 25 μl phosphate buffered saline (PBS). The cells were fixed by adding 25 μl of Prefer reagent (from Anatech LTD, Cat#414, a glyoxal fixative for fixing proteins within a cell) for sixty minutes followed by three washes with PBS. 5% Goat serum in PBS/0.3% Triton was used to block non-specific binding (60 minutes).
The primary antibodies targeting pAKT S473 and p4E-BP1 Thr37/46 were diluted into PBS/0.3% Triton and incubated with the cells overnight at 4° C. The antibodies targeting pAKTS473 (Cat#4085, Cell signaling) and p4E-BP1 Thr37/46 (Cat#2855, Cell signaling) were used at a 1:100 dilution. Plates were washed three times with PBS/0.1% Tween 20 before adding the secondary antibody at a 1:200 dilution. (goat anti-rabbit containing a fluorescent label, Alexa Fluor 488, Cat#A11008, Invitrogen) in PBS/0.3% Triton for 60 minutes.
Finally, the plates were washed three times with PBS/0.1% Tween 20 and the fluorescent intensity was read using an Analyst HT from Molecular Devices. The fluorescent intensity values from the serially diluted compound treatment group were analyzed using the Xlfit 4 program ([…]) (Formula 205: Y=Bottom+(Top-Bottom)/(1+(IC50/X)^Hillslope) to generate the IC50 value. Where Top is the maximum signal without Compound (+DMSO only) and Bottom represents maximum inhibition. Y is the fluorescence at some compound concentration. The control used to determine the fluorescent intensities for 100% pAKT S473 or 100% phosphorylated p4E-BP1 Thr37/46 were measured from untreated wells that contained only DMSO, instead of test compound.

[2] = test system: mTORC2 activity: phosphorylated AKT Ser473 (pAKT S473) in PC3 cells; assay: mTOR target engagement assay, immunofluorescent cell-based, mTORC2 readout; conditions: rated class, 90 min treatment
In short: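 Read-out is immunofluorescence intensity, normalized to DMSO-only wells and fitted to a sigmoidal Hill equation for IC50. The mTORC1 arm probes phospho-4E-BP1 Thr37/46 and the mTORC2 arm phospho-AKT Ser473.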

human mTOR enzyme = human mTOR enzyme (Homo sapiens, UniProt P42345); assay: HTRF mTOR enzyme (kinase) assay; type: biochemical; conditions: rated class; 5 μM ATP, 0.2 μM GST-S6K; read-out: hMTOR IC50
Sequence of human mTOR enzyme (P42345 1360-2549 limits assumed): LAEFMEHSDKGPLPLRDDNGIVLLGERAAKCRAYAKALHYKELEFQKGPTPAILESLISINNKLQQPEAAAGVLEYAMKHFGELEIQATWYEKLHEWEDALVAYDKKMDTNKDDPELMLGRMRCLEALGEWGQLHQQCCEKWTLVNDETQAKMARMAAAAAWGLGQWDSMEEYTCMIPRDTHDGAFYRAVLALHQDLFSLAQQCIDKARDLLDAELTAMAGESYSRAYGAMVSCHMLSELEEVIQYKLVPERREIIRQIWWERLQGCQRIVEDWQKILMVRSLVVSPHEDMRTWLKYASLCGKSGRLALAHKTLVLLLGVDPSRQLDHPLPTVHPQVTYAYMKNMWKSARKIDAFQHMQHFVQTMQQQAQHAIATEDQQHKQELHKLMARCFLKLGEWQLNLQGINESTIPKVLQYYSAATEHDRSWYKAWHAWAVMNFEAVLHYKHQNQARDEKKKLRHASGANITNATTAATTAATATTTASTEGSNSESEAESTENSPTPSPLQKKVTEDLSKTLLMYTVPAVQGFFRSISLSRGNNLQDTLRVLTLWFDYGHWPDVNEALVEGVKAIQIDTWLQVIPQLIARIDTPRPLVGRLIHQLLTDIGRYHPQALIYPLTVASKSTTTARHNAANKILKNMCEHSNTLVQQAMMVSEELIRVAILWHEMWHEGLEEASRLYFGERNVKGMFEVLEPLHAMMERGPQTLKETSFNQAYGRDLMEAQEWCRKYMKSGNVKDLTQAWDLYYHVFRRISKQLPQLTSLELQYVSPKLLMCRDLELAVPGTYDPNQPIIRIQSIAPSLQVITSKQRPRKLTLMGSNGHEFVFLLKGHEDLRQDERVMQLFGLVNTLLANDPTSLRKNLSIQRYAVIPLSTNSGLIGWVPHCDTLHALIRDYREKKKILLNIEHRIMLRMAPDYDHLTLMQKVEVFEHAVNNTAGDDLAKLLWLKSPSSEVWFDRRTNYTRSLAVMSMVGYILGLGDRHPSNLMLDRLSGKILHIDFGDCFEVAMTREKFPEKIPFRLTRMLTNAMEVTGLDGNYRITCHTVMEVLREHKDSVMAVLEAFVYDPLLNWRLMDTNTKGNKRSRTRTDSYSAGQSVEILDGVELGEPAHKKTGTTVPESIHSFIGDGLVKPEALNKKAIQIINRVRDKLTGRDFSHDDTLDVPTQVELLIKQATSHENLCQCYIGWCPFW

SMILES: CC(=O)c1c(C2CCC(O)(CO)CC2)nc2c(-c3ccc(-c4cscn4)nc3)cnn2c1N (single isomer, unassigned) [Compound 144, 1-(7-amino-5-(4-hydroxy-4-(hydroxymethyl)-cyclohexyl)-3-(6-(thiazol-4-yl)pyridin-3-yl)pyrazolo[1,5-a]pyrimidin-6-yl)ethanone]
IC50 ([1]; Homo sapiens, PC-3, 1.5 h): 0.1 to 1 µM
IC50 ([2]; Homo sapiens, PC-3, 1.5 h): 0.1 to 1 µM
IC50 (human mTOR enzyme): 0.001 to 0.1 µM

SMILES: Nc1c(Br)c([C@H]2CC[C@](O)(CC(=O)O)CC2)nc2c(-c3cnn(-c4ccccc4)c3)cnn12 [Compound 78, 2-((1S,4S)-4-(7-amino-6-bromo-3-(1-phenyl-1H-pyrazol-4-yl)pyrazolo[1,5-a]pyrimidin-5-yl)-1-hydroxycyclohexyl)-acetic acid]
IC50 ([1]; Homo sapiens, PC-3, 1.5 h): 0.1 to 1 µM
IC50 ([2]; Homo sapiens, PC-3, 1.5 h): 0.1 to 1 µM
IC50 (human mTOR enzyme): 0.001 to 0.1 µM

SMILES: CO[C@]1(C(=O)O)CC[C@@H](c2nc3c(-c4ccc(-c5ccccc5)nc4)cnn3c(N)c2C(C)=O)CC1 [Compound 35, (1R,4R)-4-(6-acetyl-7-amino-3-(6-phenylpyridin-3-yl)pyrazolo[1,5-a]pyrimidin-5-yl)-1-methoxycyclohexane-carboxylic acid]
IC50 ([1]; Homo sapiens, PC-3, 1.5 h): 0.1 to 1 µM
IC50 ([2]; Homo sapiens, PC-3, 1.5 h): 0.001 to 0.1 µM
IC50 (human mTOR enzyme): 0.001 to 0.1 µM

SMILES: COCCO[C@]1(C(=O)c2nnc[nH]2)CC[C@@H](c2nc3c(-c4cnn(-c5ccccc5)c4)cnn3c(N)c2S(C)(=O)=O)CC1 [Compound 122, ((1R,4R)-4-(7-amino-6-(methylsulfonyl)-3-(1-phenyl-1H-pyrazol-4-yl)pyrazolo[1,5-a]pyrimidin-5-yl)-1-(2-methoxyethoxy)cyclohexyl)(4H-1,2,4-triazol-3-yl)methanone]
IC50 ([1]; Homo sapiens, PC-3, 1.5 h): 0.001 to 0.1 µM
IC50 ([2]; Homo sapiens, PC-3, 1.5 h): 0.001 to 0.1 µM
IC50 (human mTOR enzyme): 0.001 to 0.1 µM

SMILES: COCCO[C@]1(C(=O)NO)CC[C@@H](c2nc3c(-c4ccc(-c5ncc[nH]5)nc4)cnn3c(N)c2C(C)=O)CC1 [Compound 115, (1R,4R)-(3-(6-(1H-imidazol-2-yl)pyridin-3-yl)-6-acetyl-7-aminopyrazolo[1,5-a]pyrimidin-5-yl)-N-hydroxy-1-(2-methoxyethoxy)cyclohexane carboxamide]
IC50 ([1]; Homo sapiens, PC-3, 1.5 h): 0.001 to 0.1 µM
IC50 ([2]; Homo sapiens, PC-3, 1.5 h): 0.001 to 0.1 µM
IC50 (human mTOR enzyme): 0.001 to 0.1 µM

SMILES: COCCO[C@]1(C(=O)O)CC[C@@H](c2nc3c(-c4ccc(-c5ccccn5)nc4)cnn3c(N)c2S(C)(=O)=O)CC1 [Compound 50, (1R,4R)-4-(3-(2,2′-bipyridin-5-yl)-7-amino-6-(methylsulfonyl)-pyrazolo[1,5-a]-pyrimidin-5-yl)-1-(2-methoxyethoxy)-cyclohexanecarboxylic acid]
IC50 ([1]; Homo sapiens, PC-3, 1.5 h): 0.1 to 1 µM
IC50 ([2]; Homo sapiens, PC-3, 1.5 h): 0.1 to 1 µM
IC50 (human mTOR enzyme): 0.001 to 0.1 µM

SMILES: C[C@]1(C(=O)O)CC[C@@H](c2nc3c(-c4ccc(-c5ccccc5)nc4)cnn3c(N)c2C#N)CC1 [Compound 26, (1S,4S)-4-(7-amino-6-cyano-3-(6-phenylpyridin-3-yl)pyrazolo[1,5-a]pyrimidin-5-yl)-1-methylcyclohexanecarboxylic acid]
IC50 [1]: 0.1 to 1 µM
IC50 [2]: 0.001 to 0.1 µM
IC50 (human mTOR enzyme): 0.001 to 0.1 µM

SMILES: CC(=O)c1c(N)n2ncc(-c3ccc(-c4ccccc4)nc3)c2nc1[C@H]1CC[C@](O)(CS(C)(=O)=O)CC1 [Compound 162, 1-(7-amino-5-((1S,4S)-4-hydroxy-4-(methylsulfonylmethyl)cyclohexyl)-3-(6-phenylpyridin-3-yl)pyrazolo[1,5-a]pyrimidin-6-yl)ethanone]
IC50 ([1]; Homo sapiens, PC-3, 1.5 h): 0.1 to 1 µM
IC50 ([2]; Homo sapiens, PC-3, 1.5 h): 0.001 to 0.1 µM
IC50 (human mTOR enzyme): 0.001 to 0.1 µM

SMILES: COCCO[C@]1(C(=O)O)CC[C@@H](c2nc3c(-c4cnn(-c5ccccc5)c4)cnn3c(N)c2C#N)CC1 [Compound 69, (1R,4R)-4-(7-amino-6-cyano-3-(1-phenyl-1H-pyrazol-4-yl)pyrazolo[1,5-a]pyrimidin-5-yl)-1-(2-methoxyethoxy)cyclohexanecarboxylic acid]
IC50 ([1]; Homo sapiens, PC-3, 1.5 h): 0.001 to 0.1 µM
IC50 ([2]; Homo sapiens, PC-3, 1.5 h): 0.001 to 0.1 µM
IC50 (human mTOR enzyme): 0.001 to 0.1 µM

SMILES: CO[C@]1(C(=O)O)CC[C@@H](c2nc3c(-c4cnn(-c5ccccc5)c4)cnn3c(N)c2C(C)=O)CC1 [Compound 36, (1R,4R)-4-(6-acetyl-7-amino-3-(1-phenyl-1H-pyrazol-4-yl)pyrazolo[1,5-a]pyrimidin-5-yl)-1-methoxycyclohexane-carboxylic acid]
IC50 ([1]; Homo sapiens, PC-3, 1.5 h): 0.1 to 1 µM
IC50 ([2]; Homo sapiens, PC-3, 1.5 h): 0.001 to 0.1 µM
IC50 (human mTOR enzyme): 0.001 to 0.1 µM

The remaining lines, values ahead:

IC50 ([1]; Homo sapiens, PC-3, 1.5 h): 0.1 to 1 µM
IC50 ([2]; Homo sapiens, PC-3, 1.5 h): 0.001 to 0.1 µM
IC50 (human mTOR enzyme): 0.001 to 0.1 µM
SMILES: CO[C@]1(C(=O)O)CC[C@H](c2nc3c(-c4cnn(-c5ccccc5)c4)cnn3c(N)c2Br)CC1 [Compound 31, (1S,4S)-4-(7-amino-6-bromo-3-(1-phenyl-1H-pyrazol-4-yl)pyrazolo[1,5-a]pyrimidin-5-yl)-1-methoxycyclohexane-carboxylic acid]

IC50 ([1]; Homo sapiens, PC-3, 1.5 h): 0.1 to 1 µM
IC50 ([2]; Homo sapiens, PC-3, 1.5 h): 0.1 to 1 µM
IC50 (human mTOR enzyme): 0.001 to 0.1 µM
SMILES: CC(=O)c1c(N)n2ncc(-c3ccc(-c4ccccc4)nc3)c2nc1[C@H]1CC[C@](C)(C(=O)O)CC1 [Compound 15, (1R,4R)-4-(6-acetyl-7-amino-3-(6-phenylpyridin-3-yl)pyrazolo[1,5-a]pyrimidin-5-yl)-1-methylcyclohexanecarboxylic acid]

IC50 ([1]; Homo sapiens, PC-3, 1.5 h): 0.1 to 1 µM
IC50 ([2]; Homo sapiens, PC-3, 1.5 h): 0.1 to 1 µM
IC50 (human mTOR enzyme): 0.001 to 0.1 µM
SMILES: COCCO[C@]1(c2nnn[nH]2)CC[C@@H](c2nc3c(-c4cnn(-c5ccccc5)c4)cnn3c(N)c2S(C)(=O)=O)CC1 [Compound 118, 5-((1R,4R)-4-(2-methoxyethoxy)-4-(1H-tetrazol-5-yl)cyclohexyl)-6-(methylsulfonyl)-3-(1-phenyl-1H-pyrazol-4-yl)pyrazolo[1,5-a]pyrimidin-7-amine]

IC50 ([1]; Homo sapiens, PC-3, 1.5 h): 0.001 to 0.1 µM
IC50 ([2]; Homo sapiens, PC-3, 1.5 h): 0.001 to 0.1 µM
IC50 (human mTOR enzyme): 0.001 to 0.1 µM
SMILES: COCCO[C@]1(C(=O)NO)CC[C@@H](c2nc3c(-c4cnn(-c5ccccc5)c4)cnn3c(N)c2S(C)(=O)=O)CC1 [Compound 88, (1R,4R)-4-(7-amino-6-(methylsulfonyl)-3-(1-phenyl-1H-pyrazol-4-yl)pyrazolo[1,5-a]pyrimidin-5-yl)-N-hydroxy-1-(2-methoxyethoxy)cyclohexanecarboxamide]

IC50 ([1]; Homo sapiens, PC-3, 1.5 h): 0.1 to 1 µM
IC50 ([2]; Homo sapiens, PC-3, 1.5 h): 0.1 to 1 µM
IC50 (human mTOR enzyme): 0.001 to 0.1 µM
SMILES: COCCO[C@]1(C(=O)O)CC[C@@H](c2nc3c(-c4cnn(-c5ccc(F)cc5)c4)cnn3c(N)c2S(C)(=O)=O)CC1 [Compound 43, (1R,4R)-4-(7-amino-3-(1-(4-fluorophenyl)-1H-pyrazol-4-yl)-6-(methylsulfonyl)-pyrazolo[1,5-a]-pyrimidin-5-yl)-1-(2-methoxyethoxy)-cyclohexanecarboxylic acid]

IC50 ([1]; Homo sapiens, PC-3, 1.5 h): 0.1 to 1 µM
IC50 ([2]; Homo sapiens, PC-3, 1.5 h): 0.001 to 0.1 µM
IC50 (human mTOR enzyme): 0.001 to 0.1 µM
SMILES: COC[C@]1(C(=O)O)CC[C@H](c2nc3c(-c4ccc(-c5ccccc5)nc4)cnn3c(N)c2C(C)=O)CC1 [Compound 18, (1R,4R)-4-(6-acetyl-7-amino-3-(6-phenylpyridin-3-yl)pyrazolo[1,5-a]pyrimidin-5-yl)-1-(methoxymethyl)-cyclohexane-carboxylic acid]

IC50 ([1]; Homo sapiens, PC-3, 1.5 h): 1 to 2 µM
IC50 ([2]; Homo sapiens, PC-3, 1.5 h): 1 to 2 µM
IC50 (human mTOR enzyme): 0.001 to 0.1 µM
SMILES: COCCOC1(C(=O)NS(C)(=O)=O)CCC(c2nc3c(-c4cnn(-c5ccccc5)c4)cnn3c(N)c2S(C)(=O)=O)CC1 (stereo not drawn) [Compound 71, 4-(7-amino-6-(methylsulfonyl)-3-(1-phenyl-1H-pyrazol-4-yl)pyrazolo[1,5-a]pyrimidin-5-yl)-1-(2-methoxyethoxy)-N-(methylsulfonyl)cyclohexanecarboxamide]

IC50 ([1]; Homo sapiens, PC-3, 1.5 h): 2 to 5 µM
IC50 ([2]; Homo sapiens, PC-3, 1.5 h): 1 to 2 µM
IC50 (human mTOR enzyme): 0.001 to 0.1 µM
SMILES: COCCO[C@]1(c2nnn[nH]2)CC[C@@H](c2nc3c(-c4ccc(-c5ccccc5)nc4)cnn3c(N)c2S(C)(=O)=O)CC1 [Compound 119]

IC50 ([1]; Homo sapiens, PC-3, 1.5 h): 0.1 to 1 µM
IC50 ([2]; Homo sapiens, PC-3, 1.5 h): 0.001 to 0.1 µM
IC50 (human mTOR enzyme): 0.001 to 0.1 µM
SMILES: COCCO[C@]1(C(=O)NCCO)CC[C@@H](c2nc3c(-c4cnn(-c5ccccc5)c4)cnn3c(N)c2S(C)(=O)=O)CC1 [Compound 92, (1R,4R)-4-(7-amino-6-(methylsulfonyl)-3-(1-phenyl-1H-pyrazol-4-yl)pyrazolo[1,5-a]pyrimidin-5-yl)-N-(2-hydroxyethyl)-1-(2-methoxyethoxy)-cyclohexane-carboxamide]
